According to patent US12433882B2, “Treatments for amyotrophic lateral sclerosis using dazucorilant” (Corcept Therapeutics Incorporated, priority 2022, dated 2025):

Columns and labels:
[1] = target: T1, mineralocorticoid receptor (MR) (Homo sapiens, UniProt P08235); assay: MR reporter gene assay; assay type: cell-based
T1 sequence (P08235 1-984): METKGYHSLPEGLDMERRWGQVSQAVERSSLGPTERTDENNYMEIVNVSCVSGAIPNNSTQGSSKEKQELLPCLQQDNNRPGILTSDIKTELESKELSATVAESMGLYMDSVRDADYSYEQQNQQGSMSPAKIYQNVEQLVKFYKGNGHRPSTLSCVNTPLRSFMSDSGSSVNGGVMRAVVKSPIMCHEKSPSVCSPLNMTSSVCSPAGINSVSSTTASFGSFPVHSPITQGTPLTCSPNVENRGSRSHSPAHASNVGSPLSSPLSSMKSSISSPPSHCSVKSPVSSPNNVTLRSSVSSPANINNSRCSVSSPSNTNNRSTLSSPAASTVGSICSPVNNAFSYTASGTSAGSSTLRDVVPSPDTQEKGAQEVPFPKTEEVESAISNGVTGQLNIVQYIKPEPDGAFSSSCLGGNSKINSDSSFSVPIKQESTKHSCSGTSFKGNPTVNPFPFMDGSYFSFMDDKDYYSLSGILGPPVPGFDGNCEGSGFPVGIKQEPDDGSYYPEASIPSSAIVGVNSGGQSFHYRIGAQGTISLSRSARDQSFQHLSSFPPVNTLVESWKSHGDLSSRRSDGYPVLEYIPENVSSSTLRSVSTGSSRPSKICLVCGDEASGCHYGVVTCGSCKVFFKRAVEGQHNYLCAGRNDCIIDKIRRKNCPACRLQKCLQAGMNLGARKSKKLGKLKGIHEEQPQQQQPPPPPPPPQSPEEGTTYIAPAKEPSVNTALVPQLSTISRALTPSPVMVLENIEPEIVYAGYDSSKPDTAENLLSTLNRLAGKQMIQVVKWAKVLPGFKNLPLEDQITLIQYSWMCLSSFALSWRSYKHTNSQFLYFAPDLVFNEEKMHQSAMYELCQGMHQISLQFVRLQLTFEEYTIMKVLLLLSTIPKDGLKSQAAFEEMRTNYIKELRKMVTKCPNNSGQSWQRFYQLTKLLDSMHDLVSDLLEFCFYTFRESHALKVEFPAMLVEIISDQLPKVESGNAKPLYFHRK

[2] = First In Human study Part 1, single ascending dose PK with or without food; conditions: for AUC(0-inf)/D (adjusted geometric mean) / AUC(0-last)/D (adjusted geometric mean) / Cmax/D (adjusted geometric mean): single dose
Method: An adaptive dose, double-blind, placebo-controlled study (NCT04249323, EudraCT 2019-004258-27) was conducted in 110 healthy male and female volunteers (18-60 years old; BMI 18-30 kg/m2; weight≤102 kg; “First In Human” (FIH) study).
ANOVA model of natural log-transformed PK parameters from part 1 of the FIH study, including a term for treatment fitted as fixed effect. PK parameters normalized to the equivalent of a 1-mg dose. AUC, area under the curve; CI, confidence interval; Cmax, maximum concentration; D, dose.
ANOVA model of natural log-transformed PK parameters from part 1 of the FIH study, including a term for treatment fitted as fixed effect. CI, confidence interval; Cmax, maximum concentration; AUC, area under the curve.

GR = target: T2, GR (Homo sapiens, UniProt P04150); assay: GR binding (competitive, reversible); conditions: read-out: affinity for GR
T2 sequence (P04150 1-777): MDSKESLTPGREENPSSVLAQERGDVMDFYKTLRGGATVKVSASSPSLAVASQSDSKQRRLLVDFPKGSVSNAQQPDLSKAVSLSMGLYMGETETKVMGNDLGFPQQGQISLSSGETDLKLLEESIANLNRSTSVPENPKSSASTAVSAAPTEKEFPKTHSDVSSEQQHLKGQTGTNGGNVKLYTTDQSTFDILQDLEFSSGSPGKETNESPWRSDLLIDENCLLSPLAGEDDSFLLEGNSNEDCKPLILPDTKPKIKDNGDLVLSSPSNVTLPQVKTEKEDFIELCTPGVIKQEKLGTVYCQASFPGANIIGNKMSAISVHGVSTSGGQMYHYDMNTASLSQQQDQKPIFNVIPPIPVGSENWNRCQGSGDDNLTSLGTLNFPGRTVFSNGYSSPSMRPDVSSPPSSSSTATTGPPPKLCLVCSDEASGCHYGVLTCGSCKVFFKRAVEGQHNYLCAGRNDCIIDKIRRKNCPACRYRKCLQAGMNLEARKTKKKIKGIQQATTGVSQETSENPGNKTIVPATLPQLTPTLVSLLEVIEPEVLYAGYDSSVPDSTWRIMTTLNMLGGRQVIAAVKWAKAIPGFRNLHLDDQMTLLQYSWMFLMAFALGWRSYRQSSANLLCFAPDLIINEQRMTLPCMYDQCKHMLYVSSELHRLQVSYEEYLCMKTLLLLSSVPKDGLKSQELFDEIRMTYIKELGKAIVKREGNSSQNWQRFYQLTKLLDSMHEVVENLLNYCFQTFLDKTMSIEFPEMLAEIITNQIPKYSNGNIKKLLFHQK
Method: Dazucorilant is selective for GR over other nuclear hormone receptors, and a range of other receptors, enzymes, and ion channels. For example, dazucorilant has high selectivity for GR relative to the progesterone receptor (PR), androgen receptor, and estrogen receptor, showing no significant binding to these receptors at a concentration of 10 μM (0%, 1.5% and […], respectively).

[3] = 2-fold dose escalation, 450 mg to 900 mg fed
[4] = 3-fold dose escalation, 150 mg to 450 mg fasted

For `O=C(c1ccccn1)[C@]12Cc3cnn(-c4ccc(F)cc4)c3C=C1CCN(S(=O)(=O)c1ccc(C(F)(F)F)cc1)C2` [dazucorilant, (R)-(1-(4-fluorophenyl)-6-((4-(trifluoromethyl)phenyl)sulfonyl)-4,4a, 5,6,7,8-hexahydro-1-H-pyrazolo[3,4-g]isoquinolin-4a-yl) (pyridin-2-yl)methanone], the inhibition at 5 µM [1] was 23%, the “AUC(0-inf)/D (adjusted geometric mean)” value ([2]; 150 mg FASTED) was 2.18 ng·h/mL/mg and the “AUC(0-last)/D (adjusted geometric mean)” value ([2]; 150 mg FASTED) was 1.69 ng·h/mL/mg. For the same compound, the “Cmax/D (adjusted geometric mean)” value ([2]; 150 mg FASTED) was 0.494 ng/mL/mg, the “exposure in fed vs fasted subjects” value ([2]; 300 mg with and without food, FIG. 1A/1B) was “Greater dazucorilant exposure was observed when dazucorilant was administered to fed subjects” and the “AUC(0-inf) Ratio Fed:Fasted” value ([2]; 450 mg) was 250.7%. For the same compound, the “AUC(0-last) Ratio Fed:Fasted” value ([2]; 450 mg) was 250.7%, the “Cmax Ratio Fed:Fasted” value ([2]; 450 mg) was 202.3% and the “AUC(0-inf) (adjusted geometric mean)” value ([2]; 450 mg FASTED) was 1290 ng·h/mL. For the same compound, the “AUC(0-last) (adjusted geometric mean)” value ([2]; 450 mg FASTED) was 1180 ng·h/mL, the “Cmax (adjusted geometric mean)” value ([2]; 450 mg FASTED) was 251 ng/mL and the “AUC(0-inf)/D (adjusted geometric mean)” value ([2]; 450 mg FASTED) was 2.86 ng·h/mL/mg. For the same compound, the “AUC(0-last)/D (adjusted geometric mean)” value ([2]; 450 mg FASTED) was 2.62 ng·h/mL/mg, the “Cmax/D (adjusted geometric mean)” value ([2]; 450 mg FASTED) was 0.557 ng/mL/mg and the “AUC(0-inf) (adjusted geometric mean)” value ([2]; 450 mg FED) was 3220 ng·h/mL. For the same compound, the “AUC(0-last) (adjusted geometric mean)” value ([2]; 450 mg FED) was 2950 ng·h/mL, the “Cmax (adjusted geometric mean)” value ([2]; 450 mg FED) was 508 ng/mL and the “AUC(0-inf)/D (adjusted geometric mean)” value ([2]; 450 mg FED) was 7.17 ng·h/mL/mg. For the same compound, the “AUC(0-last)/D (adjusted geometric mean)” value ([2]; 450 mg FED) was 6.56 ng·h/mL/mg, the “Cmax/D (adjusted geometric mean)” value ([2]; 450 mg FED) was 1.13 ng/mL/mg and the “AUC(0-inf)/D Ratio High:Low Dose” value ([2]; 450 mg vs 150 mg FASTED) was 131.3%. The “AUC(0-last)/D Ratio High:Low Dose” value ([2]; 450 mg vs 150 mg FASTED) was 155.2%, the “Cmax/D Ratio High:Low Dose” value ([2]; 450 mg vs 150 mg FASTED) was 112.9% and the “AUC(0-inf)/D (adjusted geometric mean)” value ([2]; 900 mg FED) was 10.2 ng·h/mL/mg. The “AUC(0-last)/D (adjusted geometric mean)” value ([2]; 900 mg FED) was 8.33 ng·h/mL/mg, the “Cmax/D (adjusted geometric mean)” value ([2]; 900 mg FED) was 1.23 ng/mL/mg and the “AUC(0-inf)/D Ratio High:Low Dose” value ([2]; 900 mg vs 450 mg FED) was 42.3%. For the same compound, the “AUC(0-last)/D Ratio High:Low Dose” value ([2]; 900 mg vs 450 mg FED) was 127.0%, the “Cmax/D Ratio High:Low Dose” value ([2]; 900 mg vs 450 mg FED) was 109.2% and the “increase in AUC(0-inf) on dose escalation” value [2, 3] was 2.8 fold. The “increase in Cmax on dose escalation” value [2, 3] was 2.2 fold, the “increase in AUC(0-inf) on dose escalation” value [2, 4] was 4.0 fold and the “increase in Cmax on dose escalation” value [2, 4] was 3.4 fold. The “food effect, increase in exposure” value ([2]; high-fat breakfast vs fasting (Table 2, 450 mg)) was > 2 fold and the Ki (GR) was 0.28 nM.
